Tests used:
[1] = Antiproliferative activity against human SF295 cells assessed as cell growth at 10^-8 M after 48 hrs by sulforhodamine B assay; format: functional; details: SF-295, 48 h, read-out: Activity
ACHN = experiment: Antiproliferative activity against human ACHN cells assessed as cell growth at 10^-6 M after 48 hrs by sulforhodamine B assay; format: functional; details: read-out: Activity
[2] = Antiproliferative activity against human Hs 578T cells assessed as cell growth at 10^-8 M after 48 hrs by sulforhodamine B assay; format: functional; details: read-out: Activity
SK-MEL-5 = experiment: Antiproliferative activity against human SK-MEL-5 cells assessed as growth inhibition after 48 hrs by sulforhodamine B assay; format: functional; details: SK-MEL-5, 48 h; for CC50: read-out: LC50 (the source's name)
[3] = Antiproliferative activity against human HCC2998 cells assessed as cell growth at 10^-4 M after 48 hrs by sulforhodamine B assay; format: functional; details: HCC 2998, 48 h, read-out: Activity
[4] = Antiproliferative activity against human PC3 cells assessed as cell growth at 10^-7 M after 48 hrs by sulforhodamine B assay; format: functional; details: PC-3, 48 h, read-out: Activity
SK-MEL-28 = experiment: Antiproliferative activity against human SK-MEL-28 cells assessed as cell growth at 10^-4 M after 48 hrs by sulforhodamine B assay; format: functional; details: SK-MEL-28, 48 h, read-out: Activity
[5] = Antiproliferative activity against human SW620 cells assessed as cell growth at 10^-4 M after 48 hrs by sulforhodamine B assay; format: functional; details: SW-620, 48 h, read-out: Activity
U-251 = experiment: Antiproliferative activity against human U251 cells assessed as cell growth at 10^-7 M after 48 hrs by sulforhodamine B assay; format: functional; details: U-251, 48 h, read-out: Activity
[6] = Antiproliferative activity against human OVCAR8 cells assessed as cell growth at 10^-4 M after 48 hrs by sulforhodamine B assay; format: functional; details: OVCAR-8, 48 h, read-out: Activity
[7] = Antiproliferative activity against human PC3 cells assessed as cell growth at 10^-8 M after 48 hrs by sulforhodamine B assay; format: functional; details: PC-3, 48 h, read-out: Activity
NCI-H226 = experiment: Antiproliferative activity against human NCI-H226 cells assessed as growth inhibition after 48 hrs by sulforhodamine B assay; format: functional; details: NCI-H226, 48 h; for CC50: read-out: LC50 (the source's name)
[8] = Antiproliferative activity against human HCT116 cells assessed as growth inhibition after 48 hrs by sulforhodamine B assay; format: functional; details: HCT-116, 48 h
CCRF-CEM = experiment: Antiproliferative activity against human CCRF-CEM cells assessed as cell growth at 10^-7 M after 48 hrs by sulforhodamine B assay; format: functional; details: read-out: Activity
[9] = Antiproliferative activity against human OVCAR8 cells assessed as growth inhibition after 48 hrs by sulforhodamine B assay; format: functional; details: OVCAR-8, 48 h
NCI-H460 = experiment: Antiproliferative activity against human NCI-H460 cells assessed as cell growth at 10^-8 M after 48 hrs by sulforhodamine B assay; format: functional; details: NCI-H460, 48 h, read-out: Activity
[10] = Antiproliferative activity against human OVCAR3 cells assessed as growth inhibition after 48 hrs by sulforhodamine B assay; format: functional; details: OVCAR-3, 48 h
[11] = Antiproliferative activity against human HOP62 cells assessed as cell growth at 10^-6 M after 48 hrs by sulforhodamine B assay; format: functional; details: HOP-62, 48 h, read-out: Activity
[12] = Antiproliferative activity against human HOP92 cells assessed as growth inhibition after 48 hrs by sulforhodamine B assay; format: functional; details: HOP-92, 48 h
M14 [13] = experiment: Antiproliferative activity against human M14 cells assessed as growth inhibition after 48 hrs by sulforhodamine B assay; format: functional; details: M14, 48 h; for CC50: read-out: LC50 (the source's name)
[14] = Antiproliferative activity against human Caki1 cells assessed as cell growth at 10^-8 M after 48 hrs by sulforhodamine B assay; format: functional; details: CAKI-1, 48 h, read-out: Activity
[15] = Antiproliferative activity against human IGROV1 cells assessed as cell growth at 10^-8 M after 48 hrs by sulforhodamine B assay; format: functional; details: IGROV-1, 48 h, read-out: Activity
[16] = Antiproliferative activity against human SW620 cells assessed as cell growth at 10^-7 M after 48 hrs by sulforhodamine B assay; format: functional; details: SW-620, 48 h, read-out: Activity
[17] = Antiproliferative activity against human RXF393 cells assessed as cell growth at 10^-4 M after 48 hrs by sulforhodamine B assay; format: functional; details: RXF 393, 48 h, read-out: Activity
[18] = Antiproliferative activity against human NCI-ADR-RES cells assessed as cell growth at 10^-7 M after 48 hrs by sulforhodamine B assay; format: functional; details: read-out: Activity
[19] = Antiproliferative activity against human HCT15 cells assessed as cell growth at 10^-8 M after 48 hrs by sulforhodamine B assay; format: functional; details: HCT-15, 48 h, read-out: Activity
[20] = Antiproliferative activity against human IGROV1 cells assessed as cell growth at 10^-4 M after 48 hrs by sulforhodamine B assay; format: functional; details: IGROV-1, 48 h, read-out: Activity
CYP3A4 = CYP3A4 (Homo sapiens, UniProt P08684); experiment: Inhibition of recombinant human CYP3A4 assessed as remaining enzyme activity using CYP3A4 blue as substrate at 10 uM after 5 mins in presence of NADP by fluorescence plate reader analysis; format: ADME; details: recombinant human CYP3A4, probe CYP3A4 blue, read-out: Activity
A549 = experiment: Antiproliferative activity against human A549/ATCC cells assessed as growth inhibition after 48 hrs by sulforhodamine B assay; format: functional; details: A549, 48 h
[21] = Antiproliferative activity against human SNB75 cells assessed as cell growth at 10^-6 M after 48 hrs by sulforhodamine B assay; format: functional; details: SNB-75, 48 h, read-out: Activity
T47D = experiment: Antiproliferative activity against human T47D cells assessed as cell growth at 10^-8 M after 48 hrs by sulforhodamine B assay; format: functional; details: read-out: Activity
EKVX = experiment: Antiproliferative activity against human EKVX cells assessed as cell growth at 10^-8 M after 48 hrs by sulforhodamine B assay; format: functional; details: read-out: Activity
MDA-MB-468 = experiment: Antiproliferative activity against human MDA-MB-468 cells assessed as cell growth at 10^-4 M after 48 hrs by sulforhodamine B assay; format: functional; details: MDA-MB-468, 48 h, read-out: Activity
M14 [22] = experiment: Antiproliferative activity against human M14 cells assessed as cell growth at 10^-7 M after 48 hrs by sulforhodamine B assay; format: functional; details: M14, 48 h, read-out: Activity
MCF7 = experiment: Antiproliferative activity against human MCF7 cells assessed as growth inhibition after 48 hrs by sulforhodamine B assay; format: functional; details: MCF7, 48 h; for CC50: read-out: LC50 (the source's name)
[23] = Antiproliferative activity against human SF539 cells assessed as cell growth at 10^-8 M after 48 hrs by sulforhodamine B assay; format: functional; details: SF-539, 48 h, read-out: Activity

Sequence of CYP3A4 (P08684 whole entry): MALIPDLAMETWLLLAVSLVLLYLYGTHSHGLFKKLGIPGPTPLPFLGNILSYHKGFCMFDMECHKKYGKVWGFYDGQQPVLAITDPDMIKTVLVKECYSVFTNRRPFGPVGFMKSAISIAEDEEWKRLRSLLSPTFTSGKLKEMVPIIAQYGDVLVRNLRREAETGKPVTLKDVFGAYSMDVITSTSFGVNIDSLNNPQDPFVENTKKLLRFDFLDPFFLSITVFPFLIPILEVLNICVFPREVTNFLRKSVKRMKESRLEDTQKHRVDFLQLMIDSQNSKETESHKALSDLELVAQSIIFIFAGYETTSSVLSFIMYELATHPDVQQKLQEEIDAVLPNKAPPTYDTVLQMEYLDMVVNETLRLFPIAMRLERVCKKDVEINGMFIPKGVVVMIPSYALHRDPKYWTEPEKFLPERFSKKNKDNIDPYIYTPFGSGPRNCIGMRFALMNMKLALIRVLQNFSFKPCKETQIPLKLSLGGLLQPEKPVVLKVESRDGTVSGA

In the case of CNC(=O)c1cc(Oc2ccc3nc(NC(=O)c4cc(C(F)(F)F)cc(C(F)(F)F)c4)sc3c2)ccn1, the growth at 0.01 µM [1] was 93%, the growth at 1 µM (ACHN) was 96% and the growth at 0.01 µM [2] was 94%. The GI50 (SK-MEL-5) was 1680 nM, the TGI (SK-MEL-5) was 3.63 µM and the CC50 (SK-MEL-5) was 7.87 µM. It also gave a growth at 100 µM [3] of -60%, a growth at 0.1 µM [4] of 94% and a growth at 100 µM (SK-MEL-28) of -13%. It also gave a growth at 100 µM [5] of -10%, a growth at 0.1 µM (U-251) of 97% and a growth at 100 µM [6] of -61%. The growth at 0.01 µM [7] was 96%, the GI50 (NCI-H226) was 4.15 µM and the TGI (NCI-H226) was 17.4 µM. For the same molecule, the CC50 (NCI-H226) was 76.2 µM, the GI50 [8] was 3410 nM and the LC50 (concentration killing 50% of the starting cells) [8] was 42.4 µM. The TGI [8] was 11.9 µM, the growth at 0.1 µM (CCRF-CEM) was 108% and the GI50 [9] was 3060 nM. For the same molecule, the LC50 [9] was 69.9 µM, the TGI [9] was 13 µM and the growth at 0.01 µM (NCI-H460) was 99%. For the same molecule, the GI50 [10] was 2320 nM, the LC50 [10] was 32.3 µM and the TGI [10] was 6.64 µM. For the same molecule, the growth at 1 µM [11] was 103%, the GI50 [12] was 1680 nM and the LC50 [12] was greater than 100 µM. The TGI [12] was 7.21 µM, the GI50 (M14 [13]) was 3610 nM and the TGI (M14 [13]) was 19.5 µM. It also gave a CC50 (M14 [13]) greater than 100 µM, a growth at 0.01 µM [14] of 101% and a growth at 0.01 µM [15] of 106%. It also gave a growth at 0.1 µM [16] of 102%, a growth at 100 µM [17] of -78% and a growth at 0.1 µM [18] of 103%. For the same molecule, the growth at 0.01 µM [19] was 104%, the growth at 100 µM [20] was -35% and the activity at 5 min, 10 µM (CYP3A4) was 72.9%. The GI50 (A549) was 3990 nM, the TGI (A549) was 14.6 µM and the CC50 (A549; read-out: LC50 (the source's name)) was 61.2 µM. It also gave a growth at 1 µM [21] of 89%, a growth at 0.01 µM (T47D) of 97% and a growth at 0.01 µM (EKVX) of 94%. The growth at 100 µM (MDA-MB-468) was -30%, the growth at 0.1 µM (M14 [22]) was 91% and the GI50 (MCF7) was 3.37 µM. For the same molecule, the TGI (MCF7) was 18 µM, the CC50 (MCF7) was greater than 100 µM and the growth at 0.01 µM [23] was 101%.

Work on CNC(=O)c1cc(Oc2ccc3nc(NC(=O)Nc4ccc(Cl)c(Cl)c4)sc3c2)ccn1 yielded a growth at 0.01 µM [1] of 86%, a growth at 1 µM (ACHN) of 88% and a growth at 0.01 µM [2] of 100%. It also gave a GI50 (SK-MEL-5) of 2240 nM, a TGI (SK-MEL-5) of 5.58 µM and a CC50 (SK-MEL-5) greater than 100 µM. The growth at 100 µM [3] was 37%, the growth at 0.1 µM [4] was 100% and the growth at 100 µM (SK-MEL-28) was -51%. It also gave a growth at 100 µM [5] of 48%, a growth at 0.1 µM (U-251) of 99% and a growth at 100 µM [6] of -52%. For the same molecule, the growth at 0.01 µM [7] was 96%, the GI50 (NCI-H226) was 2.28 µM and the TGI (NCI-H226) was 4.58 µM. For the same molecule, the CC50 (NCI-H226) was 9.21 µM, the GI50 [8] was 1880 nM and the LC50 (concentration killing 50% of the starting cells) [8] was 11.5 µM. The TGI [8] was 4.35 µM, the growth at 0.1 µM (CCRF-CEM) was 107% and the GI50 [9] was 2360 nM. The LC50 [9] was 73.9 µM, the TGI [9] was 5.27 µM and the growth at 0.01 µM (NCI-H460) was 104%. The GI50 [10] was 2300 nM, the LC50 [10] was greater than 100 µM and the TGI [10] was 5.38 µM. For the same molecule, the growth at 1 µM [11] was 119%, the GI50 [12] was 2660 nM and the LC50 [12] was 18.8 µM. It also gave a TGI [12] of 5.39 µM, a GI50 (M14 [13]) of 2130 nM and a TGI (M14 [13]) of 4.74 µM. For the same molecule, the CC50 (M14 [13]) was greater than 100 µM, the growth at 0.01 µM [14] was 92% and the growth at 0.01 µM [15] was 99%. It also gave a growth at 0.1 µM [16] of 115%, a growth at 100 µM [17] of -85% and a growth at 0.1 µM [18] of 98%. The growth at 0.01 µM [19] was 89%, the growth at 100 µM [20] was -20% and the activity at 5 min, 10 µM (CYP3A4) was 104%. It also gave a GI50 (A549) of 1890 nM, a TGI (A549) of 3.99 µM and a growth at 1 µM [21] of 87%. For the same molecule, the growth at 0.01 µM (T47D) was 102%, the growth at 0.01 µM (EKVX) was 89% and the growth at 100 µM (MDA-MB-468) was -44%. For the same molecule, the growth at 0.1 µM (M14 [22]) was 96%, the GI50 (MCF7) was 2.65 µM and the TGI (MCF7) was greater than 100 µM. The CC50 (MCF7) was greater than 100 µM and the growth at 0.01 µM [23] was 92%.
